This is an account of results in patent US20100137313A1 (ASTRAZENECA AB, priority 2008, published 2010).

The experiment deals with S. pneumoniae Topoisomerase IV ATPase (ParE) (Streptococcus pneumoniae serotype 4, UniProt Q59961). Put plainly: S. pneumoniae Topoisomerase IV ATPase inhibition. The conditions noted are these: values marked * are an average of two or more data points, read-out: % Inh (13 μM) of S. pneumoniae Topoisomerase IV ATPase. The format is biochemical. In a few lines: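 S. pneumoniae ParE (1.25 nM) ATPase with 160 μM ATP and 5 μg/ml sheared DNA in pH 8.0 Tris, Mg2+, DTT, Brij-35; phosphate detected by malachite green/molybdate at 650 nm. Normalised to 2% DMSO (0%) and 20 μM EDTA (100%); IC50 from 10 concentrations.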
S. pneumoniae Topoisomerase IV ATPase (ParE), sequence (Q59961 whole entry): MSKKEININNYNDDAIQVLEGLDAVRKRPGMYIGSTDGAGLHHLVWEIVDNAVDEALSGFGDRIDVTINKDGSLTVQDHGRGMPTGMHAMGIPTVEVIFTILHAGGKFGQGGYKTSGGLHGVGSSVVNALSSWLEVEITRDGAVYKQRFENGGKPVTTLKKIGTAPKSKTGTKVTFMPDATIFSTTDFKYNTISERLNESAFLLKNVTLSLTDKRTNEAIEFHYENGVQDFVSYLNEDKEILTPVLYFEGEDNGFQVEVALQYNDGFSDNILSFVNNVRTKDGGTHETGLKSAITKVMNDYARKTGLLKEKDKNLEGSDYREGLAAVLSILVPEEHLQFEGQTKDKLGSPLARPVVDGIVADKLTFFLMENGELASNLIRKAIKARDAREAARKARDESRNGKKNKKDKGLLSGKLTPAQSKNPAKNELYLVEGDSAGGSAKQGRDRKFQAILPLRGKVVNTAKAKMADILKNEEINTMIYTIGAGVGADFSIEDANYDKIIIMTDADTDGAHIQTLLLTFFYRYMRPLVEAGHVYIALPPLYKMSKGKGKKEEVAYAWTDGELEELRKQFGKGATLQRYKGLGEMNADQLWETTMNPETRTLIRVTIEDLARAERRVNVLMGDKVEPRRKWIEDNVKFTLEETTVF
Regarding `O=C(O)c1cn(CCN2CCOCC2)c2ccc(-c3cnc(Nc4ccc(F)c(Cl)c4)nc3-n3ccc(C(F)(F)F)n3)cc2c1=O` [Example 1069, 6-(2-(3-Chloro-4-fluorophenylamino)-4-(3-(trifluoromethyl)-1H-pyrazol-1-yl)pyrimidin-5-yl)-1-(2-morpholinoethyl)-4-oxo-1,4-dihydroquinoline-3-carboxylic acid], the inhibition at 13 µM amounted to 100%.

With `CN(C)CCn1cc(C(=O)O)c(=O)c2cc(-c3cnc(Nc4ccc(F)c(Cl)c4)nc3-n3ccc(C(F)(F)F)n3)ccc21` [Example 1070, 6-(2-(3-Chloro-4-fluorophenylamino)-4-(3-(trifluoromethyl)-1H-pyrazol-1-yl)pyrimidin-5-yl)-1-(2-(dimethylamino)ethyl)-4-oxo-1,4-dihydroquinoline-3-carboxylic acid], the inhibition at 13 µM came to 93%. Then `CN1CCN(CCn2cc(C(=O)O)c(=O)c3cc(-c4cnc(Nc5ccc(F)c(Cl)c5)nc4-n4ccc(C(F)(F)F)n4)ccc32)CC1` [Example 1071, 6-(2-(3-Chloro-4-fluorophenylamino)-4-(3-(trifluoromethyl)-1H-pyrazol-1-yl)pyrimidin-5-yl)-1-(2-(4-methylpiperazin-1-yl)ethyl)-4-oxo-1,4-dihydroquinoline-3-carboxylic acid], with 100%; and `O=C(O)C(=O)Nc1cccc(-c2cnc(Nc3ccc(F)c(Cl)c3)nc2-n2ccc(C(F)(F)F)n2)c1` [Example 1072, 2-(3-(2-(3-Chloro-4-fluorophenylamino)-4-(3-(trifluoromethyl)-1H-pyrazol-1-yl)pyrimidin-5-yl)phenylamino)-2-oxoacetic acid], with 95%. The result for `Nc1ncc(-c2cnc(Nc3ccc(F)c(Cl)c3)nc2-n2ccc(C(F)(F)F)n2)cc1C(=O)O` [Example 1073, 2-Amino-5-(2-(3-chloro-4-fluorophenylamino)-4-(3-(trifluoromethyl)-1H-pyrazol-1-yl)pyrimidin-5-yl)nicotinic acid] reads 99%; that for `COc1ccc(-c2cnc(Nc3ccc(F)c(Cl)c3)nc2-n2ccc(C(F)(F)F)n2)cc1C(=O)O` [Example 1074, 5-(2-(3-Chloro-4-fluorophenylamino)-4-(3-(trifluoromethyl)-1H-pyrazol-1-yl)pyrimidin-5-yl)-2-methoxybenzoic acid], 100%. Then `O=C(O)c1cc(-c2cnc(Nc3ccc(F)c(Cl)c3)nc2-n2ccc(C(F)(F)F)n2)cn(CCN2CCOCC2)c1=O` [Example 1075, 5-(2-(3-Chloro-4-fluorophenylamino)-4-(3-(trifluoromethyl)-1H-pyrazol-1-yl)pyrimidin-5-yl)-1-(2-morpholinoethyl)-2-oxo-1,2-dihydropyridine-3-carboxylic acid], with 97%; and `Cc1cc(C(F)(F)F)nn1-c1nc(Nc2ccc(F)c(Cl)c2)ncc1-c1cc(C(=O)O)c(=O)n(CCN2CCOCC2)c1` [Example 1076, 5-(2-(3-Chloro-4-fluorophenylamino)-4-(5-methyl-3-(trifluoromethyl)-1H-pyrazol-1-yl)pyrimidin-5-yl)-1-(2-morpholinoethyl)-2-oxo-1,2-dihydrpyridine-3-carboxylic acid], with 99%. As to `O=C(O)c1cc(-c2cnc(Nc3ccc(F)c(Cl)c3)nc2-n2ccc(C(F)(F)F)n2)cnc1NCCN1CCOCC1` [Example 1077, 5-(2-(3-Chloro-4-fluorophenylamino)-4-(3-(trifluoromthyl)-1H-pyrazol-1-yl)pyrimidin-5-yl)-2-(2-morpholinoethylamino)nicotinic acid], the inhibition at 13 µM was 99%. Turning to `Cc1cc(C(F)(F)F)nn1-c1nc(Nc2ccc(F)c(Cl)c2)ncc1-c1cnc(NCCN2CCOCC2)c(C(=O)O)c1` [Example 1078, 5-(2-(3-Chloro-4-fluorophenylamino)-4-(5-methyl-3-(trifluoromethyl)-1H-pyrazol-1-yl)pyrimidin-5-yl)-2-(2-morpholinoethylamino)nicotinic acid], the inhibition at 13 µM was 100%. As to `COCCNc1ncc(-c2cnc(Nc3ccc(F)c(Cl)c3)nc2-n2ccc(C(F)(F)F)n2)cc1C(=O)O` [Example 1079, 5-(2-(3-Chloro-4-fluorophenylamino)-4-(3-(trifluoromethyl)-1H-pyrazol-1-yl)pyrimidin-5-yl)-2-(2-methoxyethylamino)nicotinic acid], the inhibition at 13 µM was found to be 100%. In the case of `COCCNc1ncc(-c2cnc(Nc3ccc(F)c(Cl)c3)nc2-n2nc(C(F)(F)F)cc2C)cc1C(=O)O` [Example 1080, 5-(2-(3-Chloro-4-fluorophenylamino)-4-(5-methyl-3-(trifluoromethyl)-1H-pyrazol-1-yl)pyrimidin-5-yl)-2-(2-methoxyethylamino)nicotinic acid], the inhibition at 13 µM came to 100%.

Take `COCCn1cc(-c2cnc(Nc3ccc(F)c(Cl)c3)nc2-n2ccc(C(F)(F)F)n2)cc(C(=O)O)c1=O` [Example 1081, 5-(2-(3-Chloro-4-fluorophenylamino)-4-(3-(trifluoromethyl)-1H-pyrazol-1-yl)pyrimidin-5-yl)-1-(2-methoxyethyl)-2-oxo-1,2-dihydropyridine-3-carboxylic acid]: the inhibition at 13 µM was 100%. Then `COCCn1cc(-c2cnc(Nc3ccc(F)c(Cl)c3)nc2-n2nc(C(F)(F)F)cc2C)cc(C(=O)O)c1=O` [Example 1082, 5-(2-(3-Chloro-4-fluorophenylamino)-4-(5-methyl-3-(trifluoromethyl)-1H-pyrazol-1-yl)pyrimidin-5-yl)-1-(2-methoxyethyl)-2-oxo-1,2-dihydropyridine-3-carboxylic acid], with 100%; and `O=C(O)c1cc(-c2cnc(Nc3ccc(F)c(Cl)c3)nc2-n2ccc(C(F)(F)F)n2)cn(CCO)c1=O` [Example 1083, 5-(2-(3-Chloro-4-fluorophenylamino)-4-(3-(trifluoromethyl)-1H-pyrazol-1-yl)pyrimidin-5-yl)-1-(2-hydroxyethyl)-2-oxo-1,2-dihydropyridine-3-carboxylic acid], with 99%; and `Cc1cc(C(F)(F)F)nn1-c1nc(Nc2ccc(F)c(Cl)c2)ncc1-c1cc(C(=O)O)c(=O)n(CCO)c1` [Example 1084, 5-(2-(3-Chloro-4-fluorophenylamino)-4-(5-methyl-3-(trifluoromethyl)-1H-pyrazol-1-yl)pyrimidin-5-yl)-1-(2-hydroxyethyl)-2-oxo-1,2-dihydropyridine-3-carboxylic acid], with 100%. Then `CCn1cc(-c2cnc(Nc3ccc(F)c(Cl)c3)nc2-n2ccc(C(F)(F)F)n2)cc(C(=O)O)c1=O` [Example 1085, 5-(2-(3-Chloro-4-fluorophenylamino)-4-(3-(trifluoromethyl)-1H-pyrazol-1-yl)pyrimidin-5-yl)-1-ethyl-2-oxo-1,2-dihydropyridine-3-carboxylic acid], with 100%; and `CCn1cc(-c2cnc(Nc3ccc(F)c(Cl)c3)nc2-n2nc(C(F)(F)F)cc2C)cc(C(=O)O)c1=O` [Example 1086, 5-(2-(3-Chloro-4-fluorophenylamino)-4-(5-methyl-3-(trifluoromethyl)-1H-pyrazol-1-yl)pyrimidin-5-yl)-1-ethyl-2-oxo-1,2-dihydropyridine-3-carboxylic acid], with 92%; and `Cn1cc(-c2cnc(Nc3ccc(F)c(Cl)c3)nc2-n2ccc(C(F)(F)F)n2)cc(C(=O)O)c1=O` [Example 1087, 5-(2-(3-Chloro-4-fluorophenylamino)-4-(3-(trifluoromethyl)-1H-pyrazol-1-yl)pyrimidin-5-yl)-1-methyl-2-oxo-1,2-dihydropyridine-3-carboxylic acid], with 100%. The result for `Cc1cc(C(F)(F)F)nn1-c1nc(Nc2ccc(F)c(Cl)c2)ncc1-c1cc(C(=O)O)c(=O)n(C)c1` [Example 1088, 5-(2-(3-chloro-4-fluorophenylamino)-4-(5-methyl-3-(trifluoromethyl)-1H-pyrazol-1-yl)pyrimidin-5-yl)-1-methyl-2-oxo-1,2-dihydrpyridine-3-carboxylic acid] reads 100%; that for `CC(C)N1CCN(CCn2cc(-c3cnc(Nc4ccc(F)c(Cl)c4)nc3-n3ccc(C(F)(F)F)n3)cc(C(=O)O)c2=O)CC1` [Example 1089, 5-(2-(3-chloro-4-fluorophenylamino)-4-(3-(trifluoromethyl)-1H-pyrazol-1-yl)pyrimidin-5-yl)-1-(2-(4-isopropylpiperazin-1-yl)ethyl)-2-oxo-1,2-dihydropyridine-3-carboxylic acid], 100%. In the case of `Cc1cc(C(F)(F)F)nn1-c1nc(Nc2ccc(F)c(Cl)c2)ncc1-c1cc(C(=O)O)c(=O)n(CCN2CCN(C(C)C)CC2)c1` [Example 1090, 5-(2-(3-chloro-4-fluorophenylamino)-4-(5-methyl-3-(trifluoromethyl)-1H-pyrazol-1-yl)pyrimidin-5-yl)-1-(2-(4-isopropylpiperazin-1-yl)ethyl)-2-oxo-1,2-dihydropyridine-3-carboxylic acid], the inhibition at 13 µM was 100%. Then `CS(=O)(=O)CCn1cc(-c2cnc(Nc3ccc(F)c(Cl)c3)nc2-n2ccc(C(F)(F)F)n2)cc(C(=O)O)c1=O` [Example 1091, 5-(2-(3-Chloro-4-fluorophenylamino)-4-(3-(trifluoromethyl)-1H-pyrazol-1-yl)pyrimidin-5-yl)-1-(2-(methylsulfonyl)ethyl)-2-oxo-1,2-dihydropyridine-3-carboxylic acid], with 100%; and `O=C(O)c1cc(-c2cnc(Nc3ccc(F)c(Cl)c3)nc2-n2ccc(C(F)(F)F)n2)c[nH]c1=O` [Example 1092, 5-(2-(3-Chloro-4-fluorophenylamino)-4-(3-(trifluoromethyl)-1H-pyrazol-1-yl)pyrimidin-5-yl)-2-oxo-1,2-dihydropyridine-3-carboxylic acid], with 100%.
